Measured values: doi:10.1101/2024.08.25.609621 (bioRxiv, 2024)
Read-outs that look alike come from different tables or passages of the source.

Molecular target: SARS-CoV-2 NSP3 macrodomain (Mac1), P43 crystal form (Severe acute respiratory syndrome coronavirus 2, UniProt P0DTD1)
Type: binding
Settings: for 1-BDC: PanDDA background density correction; for Total number of conformations: ligand conformations modeled in Mac1 crystal structure; for X-ray crystallography: Binding site: site where the ligand is bound in the X-ray crystal structure
[1] = X-ray crystal structure determined (TRUE)
[2] = crystal soak 10 mM, P43 crystals
[3] = crystal soak 10 mM, DMSO background map
[4] = occupancy estimate from PanDDA 1-BDC
[5] = site of ligand in X-ray crystal structure
[6] = occupancy estimate from PanDDA BDC
[7] = crystal soak 10 mM, TFA/DMSO background map
[8] = crystal soak, soak concentration 10 mM
[9] = crystal soak, soak concentration 10 mM, TRUE = ligand hit
[10] = soak concentration 10 mM, DMSO background map
[11] = crystal soak concentration 3 mM, P43 crystals
[12] = crystal soak concentration 3 mM, DMSO background map

Structure (SMILES) | 1-BDC | X-ray crystal structure [1] | Pandda run, overall: Hit [2] | Pandda run, overall: Modeled [2] | PanDDA run, DMSO background map: 1-BDC [3] | PanDDA run, DMSO background map: Hit [3] | Total number of conformations | 2*(1-BDC) (%) [4] [%] | Binding site [5] | X-ray crystallography: Binding site | also measured
OCC(Cc1nccs1)Nc1ncnc2[nH]ccc12 (stereo not drawn) [AVI-3673] | 0.19 | TRUE | TRUE | TRUE | 0.19 | TRUE | 1 | 38 | Adenosine | – | –
OCC(Nc1ncnc2[nH]ccc12)c1ccco1 (stereo not drawn) [AVI-3659] | 0.16 | TRUE | TRUE | TRUE | 0.16 | TRUE | 1 | 32 | Adenosine | – | –
OC1CCN(c2ncnc3[nH]ccc23)C1 (stereo not drawn) [AVI-3661] | 0.15 | – | TRUE | TRUE | 0.15 | TRUE | 1 | – | – | Adenosine | Occupancy difference (refined_occupancy - 2*(1-BDC)): 10; Refined ligand occupancy (%): 40%; 2*(1-BDC) (%) [6]: 30%; Refined TFA occupancy (%) (occupancy of TFA in the dataset of the named ligand): 20%
CC(C)CCC(CO)Nc1ncnc2[nH]ccc12.O=C(O)C(F)(F)F (stereo not drawn) [AVI-3668] | – | – | TRUE | – | 0.15 | TRUE | – | – | – | – | Pandda run, overall: Modeling comment [2]: Weak density, not modeled; PanDDA run, TFA/DMSO background map: 1-BDC [7]: 0.09; PanDDA run, TFA/DMSO background map: Hit [7]: TRUE
CCC(Nc1ncnc2[nH]ccc12)C(C)(C)O (stereo not drawn) [AVI-3667] | 0.14 | TRUE | TRUE | TRUE | 0.14 | TRUE | 1 | 28 | Adenosine | – | –
C#CCC(CO)Nc1ncnc2[nH]ccc12 (stereo not drawn) [AVI-3644] | 0.18 | TRUE | TRUE | TRUE | 0.18 | TRUE | 1 | 36 | Adenosine | – | –
OCC1CC2(CCCCC2)CN1c1ncnc2[nH]ccc12 (stereo not drawn) [AVI-3727] | 0.29 | – | – | – | – | – | 1 | 58 | – | Adenosine | Pandda run, overall: Modeled [8]: TRUE; Pandda run, overall: Modeling comment [8]: Distal site, weak density, not modeled; Pandda run, overall: Hit [9]: TRUE; PanDDA run, DMSO background map: 1-BDC [10]: 0.29; PanDDA run, DMSO background map: Hit [10]: TRUE
CC(C)C1CCCN1c1ncnc2[nH]ccc12 (stereo not drawn) [AVI-5216] | 0.13 | – | – | – | – | – | 1 | – | – | Adenosine | Occupancy difference (refined_occupancy - 2*(1-BDC)): 14; Refined ligand occupancy (%): 40%; PanDDA run, DMSO background map: 1-BDC (DMSO background map, event 1): 0.13; 2*(1-BDC) (%) [6]: 26%
O=C(O)C(F)(F)F.OCC12CC(CN1c1ncnc3[nH]ccc13)C2 [AVI-3681] | 0.22 | – | TRUE | TRUE | 0.22 | TRUE | 1 | 44 | – | Adenosine | Pandda run, overall: Modeling comment [2]: Distal site, weak density, not modeled
CN1CCN(c2ncnc3[nH]ccc23)C(CO)C1 (stereo not drawn) [AVI-3721] | 0.06 | – | – | – | – | – | 2 | 12 | – | Adenosine | Pandda run, overall: Modeled [8]: TRUE; Pandda run, overall: Hit [9]: TRUE; PanDDA run, DMSO background map: 1-BDC [10]: 0.06; PanDDA run, DMSO background map: Hit [10]: TRUE
OCC(CC1OCCO1)Nc1ncnc2[nH]ccc12 (stereo not drawn) [AVI-3658] | 0.2 | TRUE | TRUE | TRUE | 0.2 | TRUE | 1 | 40 | Adenosine | – | –
CO[C@@H]1C[C@H](CO)N(c2ncnc3[nH]ccc23)C1 [AVI-3656] | 0.26 | – | TRUE | TRUE | 0.26 | TRUE | 1 | 52 | – | Adenosine | –
OCC(Cc1cncs1)Nc1ncnc2[nH]ccc12 (stereo not drawn) [AVI-3703] | 0.15 | TRUE | – | – | – | – | 1 | 30 | Adenosine | – | Pandda run, overall: Modeled [8]: TRUE; Pandda run, overall: Hit [9]: TRUE; PanDDA run, DMSO background map: 1-BDC [10]: 0.15; PanDDA run, DMSO background map: Hit [10]: TRUE
Cn1cc(CC(CO)Nc2ncnc3[nH]ccc23)cn1 (stereo not drawn) [AVI-3657] | 0.15 | TRUE | TRUE | TRUE | 0.15 | TRUE | 1 | 30 | Adenosine | – | –
Cc1c(C)n(Cc2ccccc2)c2ncnc(N)c12 [AVI-321] | 0.08 | – | – | – | – | – | 1 | 16 | – | – | PanDDA run, DMSO background map: 1-BDC (DMSO background map, event 1): 0.15; X-ray crystal structure (TRUE = crystal structure with ligand determined): TRUE; Pandda run, overall: Hit [11]: TRUE; Pandda run, overall: Modeled [11]: TRUE; PanDDA run, DMSO background map: Hit [12]: TRUE; PanDDA run, DMSO background map: Modeled [12]: TRUE; PanDDA run, DMSO background map: 1-BDC (crystal soak concentration 3 mM, DMSO background map, event 1): 0.08; Binding site (site of Mac1 where ligand bound in crystal structure): Adenosine
Cc1nn(C)cc1C1CCC(CO)N1c1ncnc2[nH]ccc12 (stereo not drawn) [AVI-3733] | 0.1 | – | TRUE | TRUE | 0.1 | TRUE | 1 | 20 | – | Adenosine | –
OCC(CC1CCC1)Nc1ncnc2[nH]ccc12 (stereo not drawn) [AVI-3641] | 0.18 | TRUE | TRUE | TRUE | 0.18 | TRUE | 1 | 36 | Adenosine | – | –
O=C(O)C(F)(F)F.OCC1(Nc2ncnc3[nH]ccc23)CC1 [AVI-3688] | 0.2 | TRUE | TRUE | TRUE | 0.2 | TRUE | 1 | 40 | Adenosine | – | –
O=C(O)C(F)(F)F.OCC(CC1CCOCC1)Nc1ncnc2[nH]ccc12 (stereo not drawn) [AVI-3676] | – | – | – | – | – | – | – | – | – | – | Pandda run, overall: Modeling comment [2]: TFA only
